Measured values published in patent US6737434B2, “Imidazole derivatives or their salts” (SSP Co., Ltd., priority 2000, dated 2004).

System: human G-CSF-dependent cell strain (BAF/hGCSFR)
Assay: Induction of cell growth of a human G-CSF-dependent cell strain (WST-1 absorbance), expressed as human-G-CSF equivalent concentration
Assay type: cell-based
Conditions: 48 hours incubation, mean±standard error, n=5
Method: Cloning of human G-CSF receptor gene was performed through RT-PCR by using primers created on the basis of the human G-CSF receptor gene using a human spleen cDNA library. The thus cloned human G-CSF receptor gene inserted to a multicloning site of an expression vector. Subsequently, the gene-inserted expression vector was transformed into E. coli for multiplication, and the expression vector was extracted. An aliquot of the expression vector (20 μg) was added to host cells (BAF/B03) prepared to 5×10^7 cells/800 μL K-PBS (30.8 mM NaCl, 120.7 mM KCl, 8.1 mM Na2HPO4, 1.46 mM KH2PO4, 5 mM MgCl2), followed by standing still at 4° C. for 15 minutes. For gene transfer, electroporation was performed at a voltage of 280 V and a capacitance of 950 μF. After completion of gene transfer, the cells were suspended in a DMEM medium ((+) 10% FCS) containing recombinant human G-CSF (rhG-CSF, 20 ng/mL) and puromycin (2 μg/mL), whereby a human G-CSF dependent cell strain was created.
For studying the cell multiplication ability with respect to rhG-CSF, the following procedure was carried out. Briefly, cells in which the human G-CSF receptor gene had been inserted (BAF/hGCSFR) were collected, and washed with PBS(−). Subsequently, the cells were suspended in DMEM medium, and the medium containing the cells was prepared to the wells of a 96-well plate (5×10^4 cells/well). Then, rhG-CSF was added to the wells (0, 0.006, 0.025, 0.1, 0.4 ng/mL), and the cells in the wells were cultured under 5% CO2 for 48 hours at 37° C. After completion of incubation, a solution of WST-1/1-methoxy PMS was added to the wells (final concentration: 5 mM), and the cells in the wells were cultured in a CO2 incubator for 2 hours. After completion of incubation, the absorbance of the cultured solution was measured at a wavelength of 450 nm. The results are shown in FIG. 1 (mean±standard error, n=5).
A solution prepared by diluting a compound with DMEM was added to the wells of a 96-well microplate (10 μL/well). The human G-CSF-dependent cell strain was added to the wells (5.0×10^4 cells/100 μL), followed by incubation for 48 hours at 37° C. After completion of incubation, a solution of WST-1/1-methoxy PMS (final concentration: 5 mM) was added to the wells, followed by incubation in a CO2 incubator for 2 hours. After completion of incubation, the absorbance was measured at a wavelength of 450 nm. The results are shown in FIG. 2 (mean±standard error, n=5).
Using the test data obtained from Test Example 1, human-G-CSF equivalent concentrations (ng/mL) corresponding to respective compound concentrations employed in Test Example 2 were calculated. The results are shown in Table 1 (mean±standard error, n=5).

| SMILES | human-G-CSF equivalent concentration (compound conc. 10^−6 M) [ng/mL] | human-G-CSF equivalent concentration (compound conc. 10^−7 M) [ng/mL] | human-G-CSF equivalent concentration (compound conc. 10^−8 M) [ng/mL] |
| --- | --- | --- | --- |
| CCCCCCCCCOc1ccc(Cl)cc1C(C)(O)Cn1ccnc1 (stereo not drawn) [Compound (1-1), 2-(5-Chloro-2-(n-nonyloxy)phenyl)-1-(1H-1-imidazolyl)-2-propanol] | 0.131 ± 0.001 | 0.032 ± 0.0003 | 0.015 ± 0.0001 |
| CCCCCCCOc1ccc(Cl)cc1C(C)(O)Cn1ccnc1 (stereo not drawn) [Compound (1-2), 2-(5-Chloro-2-(n-heptyloxy)phenyl)-1-(1H-1-imidazolyl)-2-propanol] | 0.049 ± 0.0004 | 0.037 ± 0.0003 | 0.013 ± 0.0001 |
| CCCCCCCCOc1ccc(Cl)cc1C(C)(O)Cn1ccnc1 (stereo not drawn) [Compound (1-3), 2-(5-Chloro-2-(n-octyloxy)phenyl)-1-(1H-1-imidazolyl)-2-propanol] | 0.057 ± 0.0005 | 0.057 ± 0.0005 | 0.018 ± 0.0001 |
